The structures appear in SMILES notation. Some results are limits rather than exact numbers.

`CC12CCC(C1)C1(C)Oc3ccc(CCOc4ccc(C(=O)O)c(O)c4)cc3C21C` (centres undefined) registered a melting point of 212 to 214 °C.
As for `C[C@@H]1CCCN1CCc1ccc2cc(-c3ccc(C#N)cc3)ccc2n1`, the figure is 164 °C.
`O=C1NCC(Cc2ccccc2)C2=C1N=C1N=C(N3CCOCC3)NN1C2` (centres undefined) gave a melting point of 315 to 317 °C.
As for `CN(C(=O)CN1C(=O)C2(COc3cc4c(cc32)CCO4)c2ccccc21)c1ccccc1` (centres undefined), the figure is 234 to 238 °C; as for `CCCCn1nc(Cc2ccc(-c3ccccc3-c3nnn[nH]3)cc2)c(C(=O)O)c1CC`, 191 to 192 °C.
As for `N#Cc1cccc2c1S(=O)(=O)c1ccccc1C2=O`, the figure is 252 to 254 °C; as for `CC(N)=CC(=O)CS(=O)(=O)N(C)C`, 137 to 140 °C.
As for `Cn1ncc2[nH]c3cccc(-c4ccc(O)cc4)c3c(=O)c21`, the figure is over 300 °C.
On to `CCOC(=O)COCCn1c(=O)[nH]c2ccccc2c1=O`, for which the melting point lay within 115 to 116 °C.
As for `Cc1c(-c2ccccc2)n(Cc2ccccc2)c2ccc(Br)cc12`, the figure is 113 to 116 °C; as for `Cn1cncc1C(O)(c1ccc(Cl)cc1)c1ccc2c(c1)C(c1cccc(Cl)c1)=NCc1nnnn1-2` (centres undefined), 240 °C.
The compound `CCCCOc1cccc(CCNC(=O)C=CC2CCCCC2)c1` returned a melting point of 67 to 71 °C.
`N#Cc1ccc(N(Cc2ccc(OCc3ccccc3)cc2)n2cnnc2)cc1-c1ccc(F)cc1` had a melting point of 211 to 213 °C.
`COc1ccc2nc(CN3CCN(c4ccc(Cl)cc4Cl)CC3)cn2c1` yielded a melting point of 130 °C.
As for `Cc1cn2cccc(OCc3ccc(F)cc3)c2n1`, the figure is 137 °C.
As for `Cc1cc(Br)cnc1CCCCN`, the figure is 35 to 37 °C.
As for `CC(C)(C)OC(=O)N1CCC[C@@H](Nc2nccc(-c3c(-c4cccc(C(N)=O)c4)nc4sccn34)n2)C1`, the figure is 161 to 165 °C; as for `CNC(=O)N1CC(C)(C)NC(C)(C)CC1=O`, 147 to 149 °C.
The compound `COc1ccc(S(=O)(=O)C2(C(=O)NO)CCN(Cc3ccc(C)cc3)CC2)cc1` showed a melting point of 176 to 177 °C.
As for `COc1cc2cc(Br)c(C)cc2c(C(C)C)c1OC`, the figure is 62 to 63 °C; as for `O=C(CN1CCNCC1)Nc1ccc2c(c1)C(=O)c1cc(NC(=O)CN3CCNCC3)ccc1C2=O`, 173 °C.
As for `N#Cc1ccccc1-c1ccc(CNc2ccnc3ccnn23)cc1`, the figure is 170 °C; as for `c1ccc(-c2ncc(-c3cnc[nH]3)cn2)cc1`, 216 °C.
As for `Cc1cc(C(=O)N(C)C)cc(N)n1`, the figure is 165 to 171 °C.
Compound `CN1C(=O)C(C)(C)c2ccc(C(=O)O)cc21` displayed a melting point of 253 to 255 °C.
As for `CC(=O)Nc1nc(NC(C)=O)nc(C2CCC(c3ccccc3)CC2)n1` (centres undefined), the figure is 235 to 236 °C; as for `CCCCCCCC(=O)N1CCc2nnc(NN=C(C)C)cc2C1`, 118 to 121 °C; as for `Cc1cc(Cc2ccc(C(=O)O)cc2)n(C)c1C(=O)c1ccc(Cl)cc1`, 245 to 247 °C.
As for `CC(C)(C)OC(=O)N1CCC[C@H]1COc1cccc2[nH]ncc12`, the figure is 125 °C; as for `CC(C)(C)C(NC(=O)Cc1ccc2ncccc2c1)NC(=NC#N)Nc1cccc2ncccc12` (centres undefined), 150 to 151 °C.
As for `COc1ccc(C(=O)N[C@H]2CCN(C)C[C@H]2c2ccc3c(c2)OCO3)cc1OC` (relative stereo), the figure is 193 to 194 °C.
`CCCC(=NOCC)C1=C(O)CC(c2cc3ccccc3o2)CC1=O` (centres undefined) registered a melting point of 70 °C.
As for `CC(C)c1nc(C(C)C)c(/C=C/C=O)c(-c2ccc(F)cc2)c1C=CC=O`, the figure is 122 to 123 °C; as for `Nc1cc2c(cc1N)OC(F)(Cl)C(F)(Cl)O2` (centres undefined), 130 to 131 °C; as for `O=C(Nc1ccncc1)Nc1c(Cl)cccc1Cl`, 217 to 219 °C.
For the compound `CC(C)c1ccc2c(c1)[C@@H](NC(=O)c1ccc(F)cc1)[C@H](O)C(C)(C)O2` (relative stereo), the melting point lay in the range of 235 to 236 °C.
`COC(=O)Cc1ccc2c(=O)c3ccccc3ccc2c1` had a melting point of 67 to 69 °C.
As for `Cc1ccc(S(F)(F)(F)(F)F)cc1[N+](=O)[O-]`, the figure is 29 to 30 °C.
As for `Cc1nc(-c2cnc3[nH]cc(C(=O)N[C@@H](C(=O)N4CC(C#N)C4)C(C)(C)C)c3n2)cn1-c1cccc(F)c1`, the figure is 171 to 176 °C.
As for `Nc1nc(N)nc(-c2cncc(Br)c2)n1`, the figure is over 260 °C; as for `COc1cccc(-c2cnc(C#N)c(C#N)n2)c1`, 139 to 140 °C.
In turn, `Cc1c(F)c(F)nc(-c2ccc(C(F)(F)F)cc2)c1F` yielded a melting point of 52 °C.
As for `Cc1cc(Oc2c(Cl)cc(C(F)(F)F)cc2Cl)nn1C(=O)NC(C)C`, the figure is 103 to 105 °C; as for `CN1CC(CCN(C)c2ccccc2)N(C)c2nc3ccccc3n2C1=O` (centres undefined), 74 to 90 °C; as for `CCCCC(=O)Nc1c(C(=O)OC)cc(C)cc1[N+](=O)[O-]`, 59 to 60 °C.
As for `CCCc1c(OCc2ccc(C=CC(=O)OC)cc2)ccc(C(C)=O)c1O`, the figure is 121 to 125 °C; as for `FC(F)(F)c1cc(C#CCBr)cc(C(F)(F)F)c1`, 30 to 31 °C; as for `COc1c(C)c(C)c(OC)c(C(CCCC(=O)O)c2cccnc2)c1C` (centres undefined), 82 to 84 °C.
As for `CC(F)c1nc2ncnn2c(NC2CCC(C(C)(C)C)CC2)c1Cl` (centres undefined), the figure is 138 to 139 °C.
Take `Cc1cc(N)nc(C)c1-c1ccc(Cl)cc1`: the melting point fell in the range of 148 to 152 °C.
As for `O=C(O)CCCC1(c2ccc(F)cc2)OCCO1`, the figure is 65 to 67 °C.
As for `COc1ccccc1N1CCN(CCC2CN(C)C(=O)O2)CC1` (centres undefined), the figure is 107 to 108 °C.
As to `Cc1cc(N)nc(CCc2nc3cc(-c4ccc(F)cc4)cnc3[nH]2)c1`, the melting point was 228 °C.
As for `CCc1cc(OCc2ccccc2)c2c(Cl)cccc2n1`, the figure is 78 to 80 °C; as for `CC(=N)NCCCCCCCCCCCCNC(C)=N`, 92 to 97 °C.
As for `O=C(O)CCCCCCCCCCCCCCCCCCI`, the figure is 70 to 71.5 °C; as for `CN1CCC(c2[nH]c(=O)c3ccccc3c2-c2ccccc2F)CC1`, 247 to 249 °C.
In the case of `O=C(CNc1ccccc1Cl)Nc1c(Cl)ccc2nc(N3CC[C@@H](O)C3)ccc12`, the melting point was 215 to 219 °C.
As for `Cn1cc(C(=O)Nc2ccccc2-c2ccc(C(F)(F)F)cc2)c(C(F)F)n1`, the figure is 164 to 165 °C; as for `O=C(O)CSc1nc(Cl)cc(NCc2ccc(Cl)c(Cl)c2)n1`, 64 to 69 °C; as for `CCc1ccc2c(c1)C=Cc1oc(C)nc1C2c1cn(-c2ccnc(NCC(=O)Nc3nc(CC(=O)O)cs3)n2)c(=O)[nH]c1=O` (centres undefined), 205 to 210 °C.
As for `CC(C)CCCOc1c(-c2ccc(S(C)(=O)=O)cc2)cnn(-c2ccc(F)cc2)c1=O`, the figure is 123 to 125 °C.
As for `COC(=O)c1ccc([N+](=O)[O-])s1`, the figure is 74 °C; as for `CN(CCOc1ccc(CCCC2OC(=O)NC2=O)cc1)c1ccccn1` (centres undefined), 126 to 127 °C; as for `O=C(NCc1ccccn1)c1[nH]c2ccc(Cl)cc2c1S(=O)(=O)c1ccccc1`, 250 to 251 °C.
`CCOP(=O)(CCNC1CCN(S(=O)(=O)c2ccc(Nc3nccc(Nc4ccc(F)cc4)n3)cc2)CC1)OCC` gave a melting point of 195 °C.
`COc1ccc2[nH]c(-c3cc(C)c(O)c(C)c3)c(C)c2c1` came in with a melting point of 158 to 159 °C.
As for `CC1(C)N(C=O)CC(=O)N1CC(N)=O`, the figure is 211 to 213 °C; as for `CNc1nc(NC)c2ncn(COC(COC(=O)C(C)C)COC(=O)C(C)C)c2n1`, 122 to 123 °C.
In turn, `CCOc1ccc2[nH]c3c(c2c1)C[C@@](C)(C(=O)OC)N[C@@H]3c1cccc(O)c1` (racemic) registered a melting point of 173 to 175 °C.
As for `Cc1cc(C)n2nc(S(=O)(=O)Nc3c(Cl)ccc(C)c3Cl)nc2n1`, the figure is 286 to 288 °C; as for `COc1cc(-c2ncnc(C(F)F)c2Cl)c(F)cc1Cl`, 118 to 119 °C; as for `O=C1C=CC(O)(c2cc3ccccc3n2S(=O)(=O)c2ccccc2)c2ccccc21` (centres undefined), 175 to 177 °C.
As for `CCc1nnc(-c2ccc([N+](=O)[O-])cc2)n1-c1ccc(OC)cc1`, the figure is 174 °C; as for `Nc1ccc2snc(-c3sccc3Cl)c2c1`, 128 to 132 °C; as for `CCOC(=O)c1csc(-c2cccc([N+](=O)[O-])c2)n1`, 142 to 145 °C.
Turning to `COc1cc2c(cc1OC)C(c1ccccc1)=NC(c1cccnc1)C2` (centres undefined), the melting point lay within 180 to 182 °C.
The compound `CCNc1cc(Oc2ccc(NC(=O)NC3Cc4ccc(Br)cc4C3)cc2)ncn1` (centres undefined) had a melting point of 247 °C.
As for `C=CCc1c(OCCCOc2ccc(C(C)=O)c(O)c2CCC)ccc2oc(C(=O)O)cc12`, the figure is 157 to 158 °C; as for `CC(C)(C)NCC(O)COc1cccc2nsnc12` (centres undefined), 89 to 91 °C.
As for `COc1ccc(/C=C2/c3cc(OC)c(OC)cc3CCN2C(=O)c2cc(OC)c(OC)c(OC)c2)cc1OC`, the figure is 195 to 200 °C; as for `O=C1c2ccccc2Cc2c(O)cccc21`, 230 to 233 °C; as for `Cc1ccc(S(=O)(=O)O[C@H](C)C(=O)N2C(=O)N(C)C[C@H]2C(=O)OC(C)(C)C)cc1`, 78 to 80 °C.
In the case of `CCCn1c(Cl)cc2cnc(C)n2c1=O`, the melting point lay in the range of 125 to 126 °C.
As for `Cc1c2c(c(Cc3ccc(C(C)C)cc3)c(C)c1NC(=O)NC(C)(C)C)OCC2`, the figure is 197 to 198 °C.
As for `Clc1cccc2c1CNC2`, the figure is 48 to 50 °C; as for `CSc1ccc2c(n1)C(c1ccccc1)=[N+]([O-])Cc1nncn1-2`, 190 to 192 °C.
The compound `CC(C)n1nc(-c2c(-c3ccccc3)nc(N)nc2-n2cnc3ccccc32)ccc1=O` came in with a melting point of 242 to 244 °C.
As for `Clc1csc(-c2nc(COc3ccc(CCCn4ccnc4)cc3)co2)c1`, the figure is 69 to 70 °C.

These data come from a melting point compilation (Tetko et al.; mined from patent text by program, amines drawn as free bases though some values may be those of a salt).
